# Laboratory results as given in patent US10813905B2, “Methods of treating sickle cell disease and related disorders using fumaric acid esters” (Augusta University Research Institute, Inc., priority 2012, dated 2020).
# Structures can show the parent of a compound that is named as a salt.
# Tests used:
# γ-globin promoter = assay: KU812 dual-luciferase reporter assay of γ-globin promoter activity; format: cell-based, human; conditions: for concentration of maximal induction of γ-globin promoter activity: 0-1000 μM, 48 h
# Text: (§1) KU812 stable cell lines were created by co-transfecting wild-type KU812 cells with pEGFP-NI (G418 selectable marker) and the μLCRβprRluc AγprFluc dual reporter a kind gifts from Dr. George Stamatoyannopoulos (University of Washington). Briefly, the 315-bp human β-globin gene promoter sequence was inserted upstream of the Renilla along with a polyadenylation signal downstream to create PβprRluc. Likewise, 1.4 kb of human aγ-globin promoter was inserted upstream of firefly luciferase to create AγprFluc. The μLCR (locus control region), PβprRluc, and AγprFluc fragments were subsequently cloned into the mammalian vector, pRL-null. The dual-luciferase reporter lines were produced using 10 μg each of linearized μLCRβprRluc AγprFluc and pEGFP-NI plasmids co-transfected into KU812 cells by electroporation at 260 V, 975 μF (Bio-Rad, Hercules Calif.). After 72 hr, G418 was added at a concentration of 900 μg/μl for 3 days then maintained under selection pressure indefinitely at a concentration of 400 μg/μl. […] FK228 and analogues were screened at concentrations between 1-1000 nM for 48 hr and cell toxicity was monitored by 2% Trypan blue exclusion. The effect of drug treatments on γ-globin and β-globin promoter activity was monitored by luciferase assay.
# Luciferase activity was monitored under the different experimental conditions using the Dual Luciferase Assay Reporter System (Promega, Madison, Wis.). The activity of firefly luciferase represents γ-globin promoter activity (γF), while the renilla luciferase is the read-out for β-globin promoter activity (βR). […] After drug treatments, KU812 stable cells were washed with 1× phosphate buffered saline and lysed in 1× Passive Lysis Buffer for 15 min, then protein extracts were added to the Luciferase Assay Reagent II and firefly luciferase activity quantified in a Turner Designs TD-20/20 luminometer (Sunnyvale, Calif.). […] Total protein was determined by Bradford assay on a Beckman DU 640 spectrophotometer (Chaska, Minn.) and luciferase activity was corrected for total protein. […]
# [1] = tested on: HbF in primary human erythroid cells; assay: FACS of HbF positive cells in primary human erythroid progenitors; format: cell-based; conditions: DMF 200 μM, MMF 1000 μM, HU 100 μM
# Procedure: HU (100 μM; Sigma) was included as a positive control and cell viability was monitored by trypan blue exclusion. Findings in KU812 cells were confirmed in human primary erythroid progenitor cells grown in liquid culture using a published protocol. Globin expression was measured by qPCR also as previously published. HbF protein was measured relative to that of isotype control using FITC conjugated anti-human HbF antibody (1:1000; Santa Cruz Biotechnology, Santa Cruz, Calif.) and fluorescence activated cell sorting (see supplemental methods for details). HbF protein expression was confirmed by Western blot analysis using anti-human HbF antibody (1:1000; Bethyl Laboratories, Inc., Montgomery, Tex.) and horseradish peroxidase-conjugated sheep IgG (1:1000; Santa Cruz).
# Erythroid progenitors were generated in vitro from adult CD34^+ stem cells ([…] technologies, Inc. Vancouver, Canada) using a 2-stage culture system that achieves terminal erythroid differentiation18. CD34^+ stem cells (500,000) were grown in First medium consisting of Iscove Modified Dulbecco Media containing human AB serum, interleukin-3 (10 ng/mL), stem cell factor (10 ng/mL) and erythropoietin (2 IU/mL). On day 7, the erythroblasts were placed in Second medium with 2 IU/mL erythropoietin for the duration. […] Then cells were harvested for total RNA and protein for qPCR, FACS and western blot analyses.
# After drug treatments, 500,000 cells were washed twice with phosphate buffered saline and then fixed in 4% paraformaldehyde and permeated with ice-cold acetone/methanol (4:1). Cells were incubated with anti-γ-globin-FITC antibody (Santa Cruz Biotechnology, Santa Cruz, Calif.) in PBT (PBS/01% BSA/0.1% triton X100) solution for 20 min to stain intracellular HbF antigens. The labeled cells were analyzed by Bectin Dickerson LSR-II flow cytometer (BD Bioscience). All experiments were performed in triplicate.
# [2] = tested on: small intestinal cell model; conditions: cited from earlier work
# [3] = tested on: γ-globin gene expression in KU812 cells; assay: γ-globin gene expression by qPCR in KU812 cells; format: cell-based, human; conditions: 100 μM, depending upon the incubation time (3-24 h)
# Procedure: KU812 cells were cultured in the presence or absence of MMF for time periods ranging from 0-24 hours and evaluated for changes in γ-globin gene expression relative to 18S ribosomal RNA expression (internal experimental control) by qPCR (FIG. 1). In comparison to control, untreated (UT) cells, significant increases in γ-globin gene expression were observed as early as 3 hours post-incubation with low-does (100 μM) MMF treatment. This MMF-induced increase in γ-globin expression persisted up to 24 h post-exposure to the compound. Data in FIG. 1 are represented as means±standard error of the mean (SEM); *P<0.05, **P<0.01 and ***P<0.001.
# FIG. 2 is reproduced from MaKala et al., Anemia, Volume 2012, Article ID 428137) (2012). […] At 100 μM, the same concentration that we used for MMF, HU induces γ-globin gene expression ˜2-fold.
# KU812 cells = format: cell-based; conditions: human, 48 h
# Text: as §1, with “pRL-null.” for “pRL-null. The dual-luciferase reporter lines were produced using 10 μg each of linearized μLCRβprRluc AγprFluc and pEGFP-NI plasmids co-transfected into KU812 cells by electroporation at 260 V, 975 μF (Bio-Rad, Hercules Calif.). After 72 hr, G418 was added at a concentration of 900 μg/μl for 3 days then maintained under selection pressure indefinitely at a concentration of 400 μg/μl.”
# Luciferase activity, an indicator of γ-globin promoter induction, was monitored KU812 μLCRβprRlucγprFluc—stable cells cultured in the presence of absence (untreated control, UT) of MMF at varying dosages for 48 hour according to the method discussed above and in MaKala et al., Anemia, Volume 2012, Article ID 428137) (2012).
# HU (100 μM; Sigma) was included as a positive control and cell viability was monitored by trypan blue exclusion. […] Globin expression was measured by qPCR also as previously published. […]
# [4] = tested on: γ/β-globin mRNA in primary human erythroid cells; assay: γ/β-globin mRNA by qPCR in primary human erythroid progenitors; format: cell-based; conditions: DMF 200 μM, MMF 1000 μM
# Procedure: HU (100 μM; Sigma) was included as a positive control and cell viability was monitored by trypan blue exclusion. Findings in KU812 cells were confirmed in human primary erythroid progenitor cells grown in liquid culture using a published protocol. Globin expression was measured by qPCR also as previously published. HbF protein was measured relative to that of isotype control using FITC conjugated anti-human HbF antibody (1:1000; Santa Cruz Biotechnology, Santa Cruz, Calif.) and fluorescence activated cell sorting (see supplemental methods for details). HbF protein expression was confirmed by Western blot analysis using anti-human HbF antibody (1:1000; Bethyl Laboratories, Inc., Montgomery, Tex.) and horseradish peroxidase-conjugated sheep IgG (1:1000; Santa Cruz). Erythroid progenitors were generated in vitro from adult CD34^+ stem cells ([…] technologies, Inc. Vancouver, Canada) using a 2-stage culture system that achieves terminal erythroid differentiation18. CD34^+ stem cells (500,000) were grown in First medium consisting of Iscove Modified Dulbecco Media containing human AB serum, interleukin-3 (10 ng/mL), stem cell factor (10 ng/mL) and erythropoietin (2 IU/mL). On day 7, the erythroblasts were placed in Second medium with 2 IU/mL erythropoietin for the duration. […] Then cells were harvested for total RNA and protein for qPCR, FACS and western blot analyses.
# [5] = tested on: γ-globin gene expression in primary RPE cells; assay: γ-globin/HbF expression in primary RPE cells from humanized mice; format: cell-based, mouse; conditions: ARPE-19 and primary RPE cells (FIGS. 8B, 8D, 8E, 11)
# Procedure: The effect of MMF on primary RPE cells was also investigated. RPE cells were isolated from the eyes of humanized mice and used to establish primary RPE cell cultures. […] Primary RPE cells were cultured in the presence or absence of MMF at concentrations ranging from 0-1000 μM for a period of 9 hours. Total RNA was prepared and γ-globin gene expression analyzed by qPCR. […] Data are represented as mean±SEM; *P<0.01, **P<0.001.
# Identical experiments were performed using the human RPE cell line ARPE-19, an established model for the study of RPE19, and primary RPE cell cultures established from the eyes of HbAA- and HbSS-expressing Townes humanized knock-in SCD mice (Jackson Laboratories, Bar Harbor, Me.) per our published method. Additionally, MMF (1 mM final concentration) or PBS (control) was injected intravitreally into the eyes of HbAA and HbSS mice and retinal γ-globin and HbF expression analyzed by qPCR and immunofluorescence 24 h post-injection. Animal studies were approved by the Georgia Regents University Institutional Committee for Animal Use in Research and Education.
# HbF protein production in ARPE-19 cells exposed to MMF (1000 μM) for 24 h was evaluated using a FITC-conjugated HbF antibody and fluorescence microscopy (data not shown). Cell nuclei were counterstained with DAPI. […]
# OCTN1 = OCTN1 mRNA expression in ARPE-19 cells; format: cell-based, human; conditions: RPE (ARPE-19) cells; MMF 1000 μM, HU 100 μM
# Text: Red blood cells, cells of erythroid lineage, are the primary producers of hemoglobin. […] The includes retinal pigment epithelial (RPE) cells, a cell type critical to normal visual function. […] Data are represented as mean±SEM; *p<0.05.
# [6] = single doses, healthy adults, cited from earlier work
smiles,measurement,setting,value
"COC(=O)/C=C/C(=O)OC [DMF, dimethyl fumarate]",concentration of maximal induction of γ-globin promoter activity,γ-globin promoter,200 µM
same,effectiveness as inducer of γ-globin promoter activity at higher concentrations,γ-globin promoter; concentrations higher than 100-200 μM,declined substantially
same,increase in HbF positive cells (FACS),[1],28 fold
same,permeability,[2]; in vitro small intestinal cell model,high permeability
same,metabolism in the intestinal tissue,[2]; intestinal tissue,complete metabolism
"COC(=O)/C=C/C(=O)O [MMF, monomethyl fumarate]","γ-globin gene expression, fold increase vs untreated",[3],2-4 fold
same,concentration of maximal induction of γ-globin promoter activity,γ-globin promoter,1000 µM
same,Cell viability by Trypan blue exclusion,KU812 cells,90-95%
same,γ/β-globin mRNA induction,[4],8 fold
same,increase in HbF positive cells (FACS),[1],32 fold
"NC(=O)NO [HU, hydroxyurea]",γ-globin expression and HbF production in RPE cells,[5],induction of γ-globin expression and HbF production
same,increase in HbF positive cells (FACS),[1],15 fold
same,OCTN1 expression,OCTN1,little to no effect
CCN(CC)C(=O)COC(=O)/C=C/C(=O)OC [XP23829],tolerability,[6]; four oral formulations,generally well-tolerated
same,levels of MMF in the blood,[6],expected levels of MMF in the blood
